Data reported in US12084445B2, “Broad-spectrum carbapenems” (VenatoRx Pharmaceuticals, Inc., priority 2018, dated 2024).
Read-outs that look alike come from different tables or passages of the source.

What was measured:
Assay type in all cases: cell-based
[1] = system: S. aureus ATCC 33591 (methicillin-resistant); assay: broth microdilution MIC assay, S. aureus ATCC 33591; details: Staphylococcus aureus
Outline: (§1)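 Colonies from Mueller Hinton II agar → MH broth (divalent cations supplemented), 37 °C, 200 rpm, 3-5 h → OD600-adjusted to 5×10^5 CFU/mL final → 2-fold serial compound dilutions → 16-20 h, 37 °C → visual MIC.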

[2] = system: E. coli ATCC 25922 (wild-type/QC strain); assay: broth microdilution MIC assay, E. coli ATCC 25922; details: Escherichia coli, ATCC25922, E. coli 25922, read-out: E. coli 25922 MIC
Outline: as §1

[3] = system: S. aureus ATCC 29213 (methicillin sensitive); assay: broth microdilution MIC assay, S. aureus ATCC 29213; details: Staphylococcus aureus, ATCC 29213 / MSSA; Table 3; S. aureus 29213 (MSSA); read-out: S. aureus 29213 (MSSA) MIC
Experimental: (§2) To determine the ability of test compounds to potentiate the inhibition of the growth of bacterial strains, classic cell-based broth microdilution MIC assays were employed. MIC assays are performed according to CLSI methods except where otherwise noted (CLSI, 2011 and CLSI, 2009). The reference strains S. aureus ATCC 29213 (methicillin sensitive), S. aureus ATCC 33591 (methicillin-resistant), E. coli ATCC 25922 (wild-type/QC strain), P. aeruginosa ATCC 27853 (wild-type/QC strain), and the clinical isolate P. aeruginosa PA 8 were used to determine the ability of the exemplary carbapenem compounds to inhibit bacterial growth. An expanded panel of methicillin resistance S. aureus (MRSA) and Pseudomonas was also used to determine the ability of exemplary carbapenem compounds to inhibit bacterial growth across a broader representation of those species. To determine activity in MRSA and in addition to S. aureus ATCC 33591, S. aureus USA 300, USA 400 and USA 600, some of the most common clones found to cause human infection, were also used. To further gauge the impact on the carbapenem compounds due to various resistance mechanisms in Pseudomonas, the following strains were included: P. aeruginosa 35151 (hyper-permeable strain), P. aeruginosa AmexAB-OprM (an efflux pump knockout), and P. aeruginosa PA 3 (a clinical isolate of reduced carbapenem susceptibility). Briefly, cryo-preserved bacterial cultures of clinical strains are streaked for isolation on appropriate agar medium, in this case Mueller Hinton II agar. Following incubation to allow formation of colonies, these plates are sealed with parafilm and stored refrigerated for up to two weeks. For preparation of assay inocula and to ensure low variability, at least 5 colonies are picked from the agar plates with an inoculating loop and aseptically transferred to a culture tube containing 3 mL of Mueller-Hinton Broth (supplemented with divalent cations to required levels based on Manufacturers' specification). The broth culture is grown for 3-5 hours at 37° C. with shaking at 200 rpm. Meanwhile, 2-fold serial dilutions of test compounds are conducted in a 96 well plate with a final volume of 75 μL per well at 2-fold the final desired concentration. After the dilution plates are set up the growing cultures are then diluted in a cuvette containing MH II broth and the optical density is measured at 600 nm. Inocula are diluted such that 75 μL of this culture in Mueller-Hinton Broth results in a starting bacterial concentration of 5×10^5 CFU/mL when added to the dilution plates. The plates are incubated 16-20 hours at 37° C. The MIC is read visually as the lowest concentration well with no bacterial growth.
(§3) Representative results are shown in Tables 3, 4, and 5 where A represents an MIC>32 μg/mL, B represents an MIC between 8 and 32 μg/mL inclusive, C represents an MIC between 1 and 4 μg/mL inclusive, and D represents an MIC of <1 μg/mL. NT=Not Tested.

[4] = system: P. aeruginosa ATCC 27853 (wild-type/QC strain); assay: broth microdilution MIC assay, P. aeruginosa ATCC 27853; details: Pseudomonas aeruginosa, ATCC27853, P. aeruginosa 27853, read-out: P. aeruginosa 27853 MIC
Outline: as §1

[5] = system: P. aeruginosa ΔmexAB-OprM (an efflux pump knockout); assay: broth microdilution MIC assay, P. aeruginosa ΔmexAB-OprM; details: Pseudomonas aeruginosa, 20 h, read-out: P. aeruginosa ΔmexAB-OprM MIC
Experimental: as §2, §3

S. aureus USA600 = assay: broth microdilution MIC assay, S. aureus USA 600; details: Staphylococcus aureus; Table 4; S. aureus USA600; read-out: S. aureus USA600 MIC
Experimental: as §2, §3

[6] = system: P. aeruginosa 35151 (hyper-permeable strain); assay: broth microdilution MIC assay, P. aeruginosa 35151; details: Pseudomonas aeruginosa, read-out: P. aeruginosa 35151 MIC
Experimental: as §2, §3

S. aureus USA 300 = assay: broth microdilution MIC assay, S. aureus USA 300; details: Staphylococcus aureus; Table 4; S. aureus USA300; read-out: S. aureus USA300 MIC
Experimental: as §2, §3

[7] = ATCC 33591 / MRSA, Table 3, S. aureus 33591 (MRSA), read-out: S. aureus 33591 (MRSA) MIC
[8] = ATCC33591, Table 4, S. aureus 33591, read-out: S. aureus 33591 MIC

| Compound | MIC [1, 7] | MIC ([2]; Table 3) | MIC [3] | MIC ([4]; Table 3) | MIC [5] | MIC (S. aureus USA600) | MIC [1, 8] | MIC [6] | MIC (S. aureus USA 300) | MIC ([2]; Table 4) | MIC ([4]; Table 5) |
| --- | --- | --- | --- | --- | --- | --- | --- | --- | --- | --- | --- |
| C[C@@H](O)[C@H]1C(=O)N2C(C(=O)O)=C(S[C@@H]3CCN(C4CCNCC4)C3)[C@H](C)[C@H]12 [Example 1, (4R,5S,6S)-6-((R)-1-hydroxyethyl)-4-methyl-7-oxo-3-(((R)-1-(piperidin-4-yl)pyrrolidin-3-yl)thio)-1-azabicyclo[3.2.0]hept-2-ene-2-carboxylic acid] | 8 to 32 µg/mL | < 1 µg/mL | < 1 µg/mL | 1 to 4 µg/mL |  |  |  |  |  |  |  |
| C[C@@H](O)[C@H]1C(=O)N2C(C(=O)O)=C(S[C@@H]3C[C@@H](CO)N(C4CCNCC4)C3)[C@H](C)[C@H]12 [Example 5, (4R,5S,6S)-6-((R)-1-hydroxyethyl)-3-(((3R,5S)-5-(hydroxymethyl)-1-(piperidin-4-yl)pyrrolidin-3-yl)thio)-4-methyl-7-oxo-1-azabicyclo[3.2.0]hept-2-ene-2-carboxylic acid] | 8 to 32 µg/mL | < 1 µg/mL | < 1 µg/mL | 1 to 4 µg/mL |  |  |  |  |  |  |  |
| C[C@@H](O)[C@H]1C(=O)N2C(C(=O)O)=C(S[C@@H]3CCN(Cc4cccnc4)C3)[C@H](C)[C@H]12 [Example 10, (4R,5S,6S)-6-((R)-1-hydroxyethyl)-4-methyl-7-oxo-3-(((R)-1-(pyridin-3-ylmethyl)pyrrolidin-3-yl)thio)-1-azabicyclo[3.2.0]hept-2-ene-2-carboxylic acid] | 8 to 32 µg/mL | < 1 µg/mL | < 1 µg/mL | 8 to 32 µg/mL |  |  |  |  |  |  |  |
| C[C@@H](O)[C@H]1C(=O)N2C(C(=O)O)=C(S[C@@H]3CCN(CC4CCCNC4)C3)[C@H](C)[C@H]12 (stereo partly drawn) [Example 12, (4R,5S,6S)-6-((R)-1-hydroxyethyl)-4-methyl-7-oxo-3-(((3R)-1-(piperidin-3-ylmethyl)pyrrolidin-3-yl)thio)-1-azabicyclo[3.2.0]hept-2-ene-2-carboxylic acid] | 8 to 32 µg/mL | < 1 µg/mL | < 1 µg/mL | 8 to 32 µg/mL |  |  |  |  |  |  |  |
| C[C@@H](O)[C@H]1C(=O)N2C(C(=O)O)=C(S[C@@H]3CCN(CC4CCCCN4)C3)[C@H](C)[C@H]12 (stereo partly drawn) [Example 13, (4R,5S,6S)-6-((R)-1-hydroxyethyl)-4-methyl-7-oxo-3-(((3R)-1-(piperidin-2-ylmethyl)pyrrolidin-3-yl)thio)-1-azabicyclo[3.2.0]hept-2-ene-2-carboxylic acid] | 8 to 32 µg/mL | < 1 µg/mL | < 1 µg/mL | 8 to 32 µg/mL |  |  |  |  |  |  |  |
| C[C@@H](O)[C@H]1C(=O)N2C(C(=O)O)=C(S[C@@H]3CCN(C[C@@H]4CCCN4)C3)[C@H](C)[C@H]12 [Example 14, (4R,5S,6S)-6-((R)-1-hydroxyethyl)-4-methyl-7-oxo-3-(((R)-1-(((S)-pyrrolidin-2-yl)methyl)pyrrolidin-3-yl)thio)-1-azabicyclo[3.2.0]hept-2-ene-2-carboxylic acid] | 8 to 32 µg/mL | < 1 µg/mL | < 1 µg/mL | 8 to 32 µg/mL |  |  |  |  |  |  |  |
| C[C@@H](O)[C@H]1C(=O)N2C(C(=O)O)=C(S[C@@H]3CCN(CC4(C)CCNCC4)C3)[C@H](C)[C@H]12 [Example 15, (4R,5S,6S)-6-((R)-1-hydroxyethyl)-4-methyl-3-(((R)-1-((4-methylpiperidin-4-yl)methyl)pyrrolidin-3-yl)thio)-7-oxo-1-azabicyclo[3.2.0]hept-2-ene-2-carboxylic acid] | 8 to 32 µg/mL | < 1 µg/mL | < 1 µg/mL | 8 to 32 µg/mL |  |  |  |  |  |  |  |
| CCN[C@H]1CC[C@@H](CN2CC(SC3=C(C(=O)O)N4C(=O)[C@H]([C@@H](C)O)[C@H]4[C@H]3C)C2)CC1 [Example 70, (4R,5S,6S)-3-((1-(((1s,4S)-4-(ethylamino)cyclohexyl)methyl)azetidin-3-yl)thio)-6-((R)-1-hydroxyethyl)-4-methyl-7-oxo-1-azabicyclo[3.2.0]hept-2-ene-2-carboxylic acid] |  |  |  |  | 1 to 4 µg/mL | 1 to 4 µg/mL | 1 to 4 µg/mL | < 1 µg/mL | 1 to 4 µg/mL | < 1 µg/mL | 1 to 4 µg/mL |
| C[C@@H](O)[C@H]1C(=O)N2C(C(=O)O)=C(SC3CN(CCC4CCN(C(=N)N)CC4)C3)[C@H](C)[C@H]12 [Example 71, (4R,5S,6S)-3-((1-(2-(1-carbamimidoylpiperidin-4-yl)ethyl)azetidin-3-yl)thio)-6-((R)-1-hydroxyethyl)-4-methyl-7-oxo-1-azabicyclo[3.2.0]hept-2-ene-2-carboxylic acid] |  |  |  |  | 1 to 4 µg/mL | < 1 µg/mL | 1 to 4 µg/mL | < 1 µg/mL | 1 to 4 µg/mL | < 1 µg/mL | 1 to 4 µg/mL |
| C[C@@H](O)[C@H]1C(=O)N2C(C(=O)O)=C(SC3CN(C[C@H]4CC[C@H](N(C)C(=N)N)CC4)C3)[C@H](C)[C@H]12 [Example 72, (4R,5S,6S)-6-((R)-1-hydroxyethyl)-4-methyl-3-((1-(((1r,4R)-4-(1-methylguanidino)cyclohexyl)methyl)azetidin-3-yl)thio)-7-oxo-1-azabicyclo[3.2.0]hept-2-ene-2-carboxylic acid] |  |  |  |  | 1 to 4 µg/mL | < 1 µg/mL | 1 to 4 µg/mL | < 1 µg/mL | 1 to 4 µg/mL | < 1 µg/mL | 8 to 32 µg/mL |
| C[C@@H](O)[C@H]1C(=O)N2C(C(=O)O)=C(SC3CN(C[C@H]4CC[C@@H](NC(=N)N)CC4)C3)[C@H](C)[C@H]12 [Example 73, (4R,5S,6S)-3-((1-(((1s,4S)-4-guanidinocyclohexyl)methyl)azetidin-3-yl)thio)-6-((R)-1-hydroxyethyl)-4-methyl-7-oxo-1-azabicyclo[3.2.0]hept-2-ene-2-carboxylic acid] |  |  |  |  | < 1 µg/mL | < 1 µg/mL | 1 to 4 µg/mL | < 1 µg/mL | 1 to 4 µg/mL | < 1 µg/mL | 1 to 4 µg/mL |
| C[C@@H](O)[C@H]1C(=O)N2C(C(=O)O)=C(SC3CN(C[C@H]4CC[C@@H](N(C)C(=N)N)CC4)C3)[C@H](C)[C@H]12 [Example 74, (4R,5S,6S)-6-((R)-1-hydroxyethyl)-4-methyl-3-((1-(((1s,4S)-4-(1-methylguanidino)cyclohexyl)methyl)azetidin-3-yl)thio)-7-oxo-1-azabicyclo[3.2.0]hept-2-ene-2-carboxylic acid] |  |  |  |  | 1 to 4 µg/mL | 1 to 4 µg/mL | 1 to 4 µg/mL | < 1 µg/mL | 1 to 4 µg/mL | < 1 µg/mL | 8 to 32 µg/mL |
